The values that follow come from BindingDB's records for doi:10.1016/j.bmcl.2008.12.062 (Bristol-Myers Squibb, 2009).

pIC50: −log10 of the molar value.

The assay is described as follows: Antagonist activity at CCR2 in human PBMCs assessed as inhibition of MCP1-induced chemotaxis.
As usually defined, the pIC50 is the IC50 on a negative log10 scale, so that one unit is a factor of ten. Consider `CSc1ccc(C(=O)NC2CC(N)CCC2NC(=O)CNC(=O)c2cc(C(F)(F)F)ccc2N)cc1` (racemic) [(+/-)-2-amino-N-(2-(4-amino-2-(4-(methylthio)benzamido)cyclohexylamino)-2-oxoethyl)-5-(trifluoromethyl)benzamide], for which the pIC50 was 7.87.

On to `CC(=O)Nc1ccc(CNC2CC(N(C)C)CCC2NC(=O)CNC(=O)c2cccc(C(F)(F)F)c2)cc1` (racemic) [(+/-)-N-(2-(2-(4-acetamidobenzylamino)-4-(dimethylamino)cyclohexylamino)-2-oxoethyl)-3-(trifluoromethyl)benzamide], for which the pIC50 is 7.76.

Regarding `CN(C)C1CCC(NC(=O)CNC(=O)c2cccc(C(F)(F)F)c2)C(NCc2ccc3[nH]ccc3c2)C1` (racemic) [(+/-)-N-(2-(2-((1H-indol-5-yl)methylamino)-4-(dimethylamino)cyclohexylamino)-2-oxoethyl)-3-(trifluoromethyl)benzamide], the pIC50 is 7.64.

For the compound `CSc1ccc(CNC2CC(N(C)C)CCC2NC(=O)CNC(=O)c2cccc(C(F)(F)F)c2)cc1` (racemic) [(+/-)-N-(2-(4-(dimethylamino)-2-(4-(methylthio)benzylamino)cyclohexylamino)-2-oxoethyl)-3-(trifluoromethyl)benzamide], the pIC50 is 7.65.

`COc1ccc(CNC2CC(N(C)C)CCC2NC(=O)CNC(=O)c2cccc(C(F)(F)F)c2)cc1` (racemic) [(+/-)-N-(2-(4-(dimethylamino)-2-(4-methoxybenzylamino)cyclohexylamino)-2-oxoethyl)-3-(trifluoromethyl)benzamide]: the pIC50 is 7.38.

In the case of `Cc1ccc(CNC2CC(N(C)C)CCC2NC(=O)CNC(=O)c2cccc(C(F)(F)F)c2)cc1` (racemic) [(+/-)-N-(2-(4-(dimethylamino)-2-(4-methylbenzylamino)cyclohexylamino)-2-oxoethyl)-3-(trifluoromethyl)benzamide], the pIC50 is 7.90.

Turning to `CSc1ccc(C(=O)NC2CC(NC(=O)OCc3ccccc3)CCC2NC(=O)CNC(=O)c2cccc(C(F)(F)F)c2)cc1` (racemic) [(+/-)-benzyl3-(4-(methylthio)benzamido)-4-(2-(3-(trifluoromethyl)benzamido)acetamido)cyclohexylcarbamate], the negative logarithm of the IC50 (pIC50) is 8.29.
